The results in this text go back to ChEMBL document CHEMBL4808195, “Discovery of heterocyclic substituted dihydropyrazoles as potent anticancer agents” (Bioorg Med Chem Lett, 2021).

By inhibition is commonly meant the relative decrease from the control value, in per cent.

Molecules are shown by their SMILES.

What all share (assay type): functional
One assay has as its system MDA-MB-231. The assay can be described thus: Anticancer activity against human MDA-MB-231 cells assessed as inhibition of cell growth at 10 uM measured by SRB method.
For a further assay, the system named is HCC1806. The assay can be described thus: Anticancer activity against human HCC1806 cells assessed as inhibition of cell growth at 10 uM measured by SRB method.
The next assay concerns NCI-H1975. The assay can be described thus: Anticancer activity against human NCI-H1975 cells assessed as inhibition of cell growth at 10 uM measured by SRB method.

On to `Cc1ccc(S(=O)(=O)N2N=C(c3ccc(N4CCN(C)CC4)cc3)CC2c2ccc(N(C)C)cc2)cc1` (centres undefined), for which the inhibition at 10 µM came out at 10.7% with MDA-MB-231, 32.2% in the assay with HCC1806 and 38.1% in the assay on NCI-H1975.
On the same counts, the results for `CN1CCN(c2ccc(C3=NN(S(=O)(=O)C4CC4)C(c4ccc(N(C)C)cc4)C3)cc2)CC1` (centres undefined) are 3.7%, 4.7% and 0.2%.
As for `CN(C)c1ccc(C2CC(c3ccc(-n4ccnc4)cc3)=NN2C(=O)Cc2ccccc2)cc1` (centres undefined), the inhibition at 10 µM in the assay on MDA-MB-231 is 7.2%; in the assay on HCC1806 it was 2%; with NCI-H1975, -5.5%.
For the molecule `CN(C)c1ccc(C2CC(c3ccc(-n4cncn4)cc3)=NN2C(=O)CCCl)cc1` (centres undefined), the inhibition at 10 µM with MDA-MB-231 was 3.7%; in the assay on HCC1806, -3.4%; in the assay with NCI-H1975, -0.7%.
As for `CN1CCN(c2ccc(C3=NN(C(=O)CCCl)C(c4ccc(N(C)C)cc4)C3)cc2)CC1` (centres undefined), the inhibition at 10 µM with MDA-MB-231 was 2.4%; with HCC1806 it was 1.7%; in the assay with NCI-H1975, -0.2%.
For `CC(=O)N1N=C(c2ccc(-n3cncn3)cc2)CC1c1ccc(N(C)C)cc1` (centres undefined) the same measures were 7.4%, 11% and -0.3%.
For `Cc1ccc(S(=O)(=O)N2N=C(c3ccc(-n4cncn4)cc3)CC2c2ccc(N(C)C)cc2)cc1` (centres undefined) the same measures were 20.7%, 27.7% and 20%.
For `CN1CCN(c2ccc(C3=NN(C(=O)Cc4ccccc4)C(c4ccc(N(C)C)cc4)C3)cc2)CC1` (centres undefined) the same measures were 1.9%, 1% and -2.8%.
As to `CN(C)c1ccc(C2CC(c3ccc(-n4cncn4)cc3)=NN2C(=O)c2ccc(F)cc2)cc1` (centres undefined), the results for the inhibition at 10 µM in the assay with MDA-MB-231, in the assay on HCC1806 and in the assay with NCI-H1975 were 12.5%, 15.6% and -1.1%, respectively.
In the case of `CN1CCN(c2ccc(C3=NNC(c4ccc(N(C)C)cc4)C3)cc2)CC1` (centres undefined), the inhibition at 10 µM came to 11.4% in the assay with MDA-MB-231, 31.2% in the assay on HCC1806 and 2.4% in the assay on NCI-H1975.
For `CN(C)c1ccc(C2CC(c3ccc(-n4cncn4)cc3)=NN2C(=O)/C=C/c2ccccc2)cc1` (centres undefined), the inhibition at 10 µM in the assay on MDA-MB-231 is 8.5%; with HCC1806, -3.7%; in the assay on NCI-H1975, -2.3%.
On the same counts, the results for `CN(C)c1ccc(C2CC(c3ccc(-n4cncn4)cc3)=NN2S(C)(=O)=O)cc1` (centres undefined) are 7.8%, 10.8% and -3.1%.
Consider `CN(C)c1ccc(C2CC(c3ccc(-n4ccnc4)cc3)=NN2S(C)(=O)=O)cc1` (centres undefined), for which the inhibition at 10 µM with MDA-MB-231 is 12%; in the assay with HCC1806 it was 11.3%; with NCI-H1975, -3.8%.
In the case of `CN(C)c1ccc(C2CC(c3ccc(-n4cncn4)cc3)=NN2S(=O)(=O)c2ccc(Br)cc2)cc1` (centres undefined), the results for the inhibition at 10 µM with MDA-MB-231, in the assay on HCC1806 and in the assay with NCI-H1975 were 10.4%, 26.3% and -0.6%, respectively.
On the same counts, the results for `CN(C)c1ccc(C2CC(c3ccc(-n4cncn4)cc3)=NN2)cc1` (centres undefined) are 7%, 6.8% and -3.3%.
On the same counts, the results for `CN(C)c1ccc(C2CC(c3ccc(-n4ccnc4)cc3)=NN2C(=O)CCCl)cc1` (centres undefined) are 2.1%, -5.2% and -2.5%.
On the same counts, the results for `CN(C)c1ccc(C2CC(c3ccc(-n4cncn4)cc3)=NN2S(=O)(=O)c2ccc(OC(F)(F)F)cc2)cc1` (centres undefined) are 18.5%, 25.2% and 11.1%.
On to `CN(C)c1ccc(C2CC(c3ccc(-n4cncn4)cc3)=NN2S(=O)(=O)c2ccc(C(F)(F)F)cc2)cc1` (centres undefined), for which the inhibition at 10 µM came to 15.3% in the assay with MDA-MB-231, 37% in the assay on HCC1806 and 5.5% in the assay on NCI-H1975.
